Data taken from patent publication US20220133728A1, “METHODS FOR TREATING VITILIGO LESIONS HAVING IMPROVED EFFICACY” (ARCUTIS BIOTHERAPEUTICS, INC., priority 2020, published 2022).

How the values were obtained:
JAK 1 = JAK 1 (Homo sapiens, UniProt P23458); details: cited from earlier work
vitiligo lesions = assay: Proof of Concept, double blind, vehicle-controlled study of ARQ-252 cream 0.3% BID with NB-UVB home phototherapy in non-segmental facial vitiligo; assay type: in vivo, human; details: applied topically in combination with narrowband UVB phototherapy, compared to vehicle cream plus narrowband UVB
Excerpt: A Proof of Concept, parallel group, double blind, vehicle-controlled study of the safety and efficacy of a 0.3% SHR0302 topical cream of Example 1 (ARQ-252 cream 0.3%) was designed for subjects with non-segmental facial vitiligo. Subjects with non-segmental facial vitiligo applied either ARQ-252 0.3% cream BID or vehicle cream BID to all affected areas of vitiligo on the face, neck, hands, forearms, and elbows. Product was applied to all affected, depigmented areas and, where anatomically possible, treatment extended approximately 3 cm from the border all around. […]
The two patients were assessed by measures including Facial Vitiligo Area and Severity Index (F-VASI), Facial Body Surface Area (F-BSA), Facial/Neck BSA (F/N-BSA), BSA (Hands, Forearms, Elbows), Facial/Neck VASI (F/N-VASI), VASI of the forearms and elbow (FOREARM-VASI) and VASI of the hands only (HAND-VASI). […] VASI is a quantitative clinical tool that is based on a composite estimate of the overall area of vitiligo patches at baseline and the degree of macular repigmentation within these patches over time. […] BSA affected with vitiligo will be assessed as a percentage of the total BSA, and will be determined to the nearest 0.01% using, as guides, the palm plus 5 digits, with fingers tucked together and thumb tucked to the side (handprint), as 1% BSA and the thumb as 0.1% BSA. […]

Sequence of JAK 1 (P23458 whole entry, species assumed): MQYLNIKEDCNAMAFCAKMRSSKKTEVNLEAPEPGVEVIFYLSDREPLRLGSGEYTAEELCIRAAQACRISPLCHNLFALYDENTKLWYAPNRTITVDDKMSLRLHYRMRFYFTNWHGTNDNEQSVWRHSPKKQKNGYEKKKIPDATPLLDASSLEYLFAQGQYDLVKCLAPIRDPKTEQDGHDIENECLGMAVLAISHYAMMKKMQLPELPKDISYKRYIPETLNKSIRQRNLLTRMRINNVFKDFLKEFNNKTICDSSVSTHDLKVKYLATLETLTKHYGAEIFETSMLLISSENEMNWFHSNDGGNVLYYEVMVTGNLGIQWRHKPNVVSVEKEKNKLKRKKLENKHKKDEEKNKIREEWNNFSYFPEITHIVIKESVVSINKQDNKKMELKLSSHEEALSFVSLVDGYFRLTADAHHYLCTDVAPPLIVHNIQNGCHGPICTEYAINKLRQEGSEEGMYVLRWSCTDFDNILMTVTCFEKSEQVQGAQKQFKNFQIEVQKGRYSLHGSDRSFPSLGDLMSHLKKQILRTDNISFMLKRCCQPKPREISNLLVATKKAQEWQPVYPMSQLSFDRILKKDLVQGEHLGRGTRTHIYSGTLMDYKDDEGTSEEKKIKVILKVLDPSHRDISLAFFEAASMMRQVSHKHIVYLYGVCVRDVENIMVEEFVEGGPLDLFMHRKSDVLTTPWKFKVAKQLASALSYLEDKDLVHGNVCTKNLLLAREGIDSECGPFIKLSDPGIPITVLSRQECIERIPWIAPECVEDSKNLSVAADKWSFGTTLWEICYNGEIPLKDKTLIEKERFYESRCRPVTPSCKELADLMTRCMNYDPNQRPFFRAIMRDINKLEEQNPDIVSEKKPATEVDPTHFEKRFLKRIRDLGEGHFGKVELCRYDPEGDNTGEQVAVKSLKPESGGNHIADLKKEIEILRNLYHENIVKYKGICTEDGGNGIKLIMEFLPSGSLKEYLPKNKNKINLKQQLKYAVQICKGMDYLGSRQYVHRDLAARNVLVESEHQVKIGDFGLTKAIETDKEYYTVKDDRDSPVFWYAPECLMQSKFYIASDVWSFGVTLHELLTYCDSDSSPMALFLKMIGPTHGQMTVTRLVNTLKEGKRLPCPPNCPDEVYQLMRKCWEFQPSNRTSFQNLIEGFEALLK

In the case of `COc1nsc(NC(=O)N2C[C@H]3C[C@H](N(C)c4ncnc5[nH]ccc45)C[C@H]3C2)n1` [SHR0302, (3aR,5S,6aS)—N-(3-methoxyl-1,2,4-thiadiazol-5-yl)-5-(methyl(7H-pyrrolo[2,3-d]pyrimidin-4-yl)amino)hexahydrocyclopenta[c]pyrrole-2(1H)-carboxamide], the “inhibition of JAK 1” value (JAK 1) is listed as “potent”, the “selectivity for JAK1 over JAK2” value (JAK 1) is listed as “high selectively for JAK1 over JAK2” and the “repigmentation of vitiligo lesions” value (vitiligo lesions) is listed as “dramatically repigmented”.
